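All cell lines were grown in 96-well plates and treated with compound for 48 hours. GI50 = concentration required for 50% inhibition of growth. The concentration for full growth arrest is given as TGI.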
Assays:
Experiment in all cases: NCI-60 cell line screen, 48 h
[1] = tested on: SW-620 colon
[2] = tested on: COLO 205 colon
[3] = tested on: NCI-H522 lung
[4] = tested on: SK-MEL-28 melanoma
[5] = tested on: SR leukemia
[6] = tested on: HL-60(TB) leukemia
[7] = tested on: A498 renal
[8] = tested on: HT29 colon
[9] = tested on: LOX IMVI melanoma
[10] = tested on: NCI-H23 lung
[11] = tested on: MDA-MB-231 breast
[12] = tested on: NCI/ADR-RES ovarian
[13] = tested on: ACHN renal
[14] = tested on: OVCAR-8 ovarian
[15] = tested on: RXF 393 renal
[16] = tested on: TK-10 renal
[17] = tested on: MOLT-4 leukemia
[18] = tested on: SN12C renal
[19] = tested on: EKVX NSCLC
[20] = tested on: HCC-2998 colon
[21] = tested on: SF-539 CNS
[22] = tested on: NCI-H226 lung
[23] = tested on: HS 578T breast
[24] = tested on: SK-MEL-2 melanoma
[25] = tested on: SF-295 CNS
[26] = tested on: U251 CNS
[27] = tested on: OVCAR-4 ovarian
[28] = tested on: A549 NSCLC
[29] = tested on: UACC-257 melanoma
[30] = tested on: CCRF-CEM leukemia
[31] = tested on: SF-268 CNS
[32] = tested on: MDA-MB-435
[33] = tested on: UO-31 renal
[34] = tested on: DU-145 prostate
[35] = tested on: MCF7 breast
[36] = tested on: IGROV1 ovarian
[37] = tested on: HCT-116 colon
[38] = tested on: HCT-15 colon
[39] = tested on: 786-0 renal
[40] = tested on: T-47D breast
[41] = tested on: M14 melanoma
[42] = tested on: OVCAR-5 ovarian
[43] = tested on: SNB-75 CNS
[44] = tested on: RPMI-8226 leukemia
[45] = tested on: MALME-3M melanoma
[46] = tested on: UACC-62 melanoma
[47] = tested on: BT-549 breast
[48] = tested on: OVCAR-3 ovarian
[49] = tested on: HOP-62 NSCLC
[50] = tested on: KM12 colon
[51] = tested on: HOP-92 NSCLC
[52] = tested on: CAKI-1 renal
[53] = tested on: SK-MEL-5 melanoma
[54] = tested on: SNB-19 CNS
[55] = tested on: SK-OV-3 ovarian
[56] = tested on: PC-3 prostate
[57] = tested on: NCI-H460 lung
[58] = tested on: K-562 leukemia

## C=C1C(=O)OC2CC(C)C3(O)CCC(=O)C3(C)CC12 (configuration not stated)
[1]
  TGI: > 100 µM
[2]
  TGI: > 100 µM
[3]
  TGI: 30.3 µM
[4]
  TGI: > 100 µM
[5]
  TGI: 57 µM
[6]
  TGI: 39.2 µM
[7]
  TGI: 66.2 µM
[8]
  TGI: 43.4 µM
[9]
  TGI: > 100 µM
[10]
  TGI: > 100 µM
[11]
  TGI: > 100 µM
[12]
  TGI: > 100 µM
[13]
  TGI: 36.2 µM
[14]
  TGI: 70.3 µM
[15]
  TGI: 79.7 µM
[16]
  TGI: 99.1 µM
[17]
  TGI: 58 µM
[18]
  TGI: 48.8 µM
[19]
  TGI: > 100 µM
[20]
  TGI: 50 µM
[21]
  TGI: 32.7 µM
[22]
  TGI: > 100 µM
[23]
  TGI: 61.4 µM
[24]
  TGI: 71.5 µM
[25]
  TGI: > 100 µM
[26]
  TGI: > 100 µM
[27]
  TGI: 40.2 µM
[28]
  TGI: > 100 µM
[29]
  TGI: > 100 µM
[30]
  TGI: > 100 µM
[31]
  TGI: 64.5 µM
[32]
  TGI: > 100 µM
[33]
  TGI: > 100 µM
[34]
  TGI: > 100 µM
[35]
  TGI: > 100 µM
[36]
  TGI: 82.6 µM
[37]
  TGI: 99.4 µM
[38]
  TGI: 28.1 µM
[39]
  TGI: 59.7 µM
[40]
  TGI: > 100 µM
[41]
  TGI: 55.6 µM
[42]
  TGI: 74.3 µM
[43]
  TGI: 84.3 µM
[44]
  TGI: 43.1 µM
[45]
  TGI: 69.5 µM
[46]
  TGI: > 100 µM
[47]
  TGI: > 100 µM
[48]
  TGI: 46.5 µM
[49]
  TGI: > 100 µM
[50]
  TGI: 42.6 µM
[51]
  TGI: > 100 µM
[52]
  TGI: 44.4 µM
[53]
  TGI: > 100 µM
[54]
  TGI: 61.4 µM
[55]
  TGI: > 100 µM
[56]
  TGI: > 100 µM

## COc1ccc2c(c1)nc1n2C(c2c(Cl)cccc2Cl)SC1 (configuration not stated)
[1]
  TGI: > 53.8 µM
[2]
  TGI: > 100 µM
[4]
  TGI: > 100 µM
[5]
  TGI: > 100 µM
[6]
  TGI: > 22.7 µM
[7]
  TGI: > 100 µM
[8]
  TGI: 85.9 µM
[9]
  TGI: > 100 µM
[10]
  TGI: > 100 µM
[11]
  TGI: > 100 µM
[12]
  TGI: > 52.5 µM
[13]
  TGI: > 100 µM
[14]
  TGI: > 100 µM
[15]
  TGI: > 70.3 µM
[16]
  TGI: > 100 µM
[17]
  TGI: > 100 µM
[18]
  TGI: > 100 µM
[19]
  TGI: > 100 µM
[20]
  TGI: > 86.8 µM
[21]
  TGI: > 100 µM
[22]
  TGI: > 100 µM
[23]
  TGI: 49.4 µM
[24]
  TGI: > 74 µM
[25]
  TGI: > 70.4 µM
[57]
  TGI: > 100 µM
[26]
  TGI: > 65.5 µM
[58]
  TGI: > 100 µM
[27]
  TGI: > 100 µM
[28]
  TGI: > 100 µM
[29]
  TGI: > 100 µM
[30]
  TGI: > 100 µM
[31]
  TGI: > 100 µM
[32]
  TGI: > 23.6 µM
[33]
  TGI: > 100 µM
[34]
  TGI: > 100 µM
[35]
  TGI: > 37.5 µM
[36]
  TGI: > 100 µM
[37]
  TGI: > 81.2 µM
[38]
  TGI: > 100 µM
[39]
  TGI: > 100 µM
[40]
  TGI: > 72.3 µM
[41]
  TGI: > 43.7 µM
[42]
  TGI: > 100 µM
[43]
  TGI: > 75.1 µM
[44]
  TGI: > 100 µM
[45]
  TGI: 14.5 µM
[46]
  TGI: > 100 µM
[47]
  TGI: > 100 µM
[48]
  TGI: > 93 µM
[49]
  TGI: > 71 µM
[50]
  TGI: > 100 µM
[51]
  TGI: > 100 µM
[52]
  TGI: > 100 µM
[53]
  TGI: > 100 µM
[54]
  TGI: > 92.7 µM
[55]
  TGI: > 100 µM
[56]
  TGI: > 82.3 µM

## COc1ccc(CCNC(=O)c2ccc(NC3=C(Cl)C(=O)N(Cc4ccccc4)C3=O)cc2)cc1OC
[2]
  GI50: 3.94 µM
  TGI: > 100 µM
[3]
  GI50: 4.74 µM
  TGI: 89.9 µM
[4]
  GI50: 15.1 µM
  TGI: > 100 µM
[5]
  GI50: 1.44 µM
  TGI: 3.15 µM
[6]
  GI50: 2.83 µM
  TGI: 4.49 µM
[7]
  GI50: 27.2 µM
  TGI: 72.1 µM
[8]
  GI50: 7.88 µM
  TGI: > 100 µM
[10]
  GI50: 2.01 µM
  TGI: 4.46 µM
[11]
  GI50: 4.52 µM
  TGI: > 100 µM
[12]
  GI50: 22.3 µM
  TGI: 64.4 µM
[13]
  GI50: 43 µM
  TGI: > 100 µM
[14]
  GI50: 11.9 µM
  TGI: > 100 µM
[15]
  GI50: 7.83 µM
  TGI: > 100 µM
[16]
  GI50: 11.5 µM
  TGI: 70.9 µM
[17]
  GI50: 2.28 µM
  TGI: 4.78 µM
[18]
  GI50: 23.9 µM
  TGI: > 100 µM
[19]
  GI50: 24.9 µM
  TGI: > 100 µM
[21]
  GI50: 23.9 µM
  TGI: 70.5 µM
[22]
  GI50: 10 µM
  TGI: > 100 µM
[23]
  GI50: 4.62 µM
  TGI: > 100 µM
[24]
  GI50: 16.8 µM
  TGI: 54.1 µM
[25]
  GI50: 29.4 µM
  TGI: > 100 µM
[57]
  GI50: 32 µM
  TGI: > 100 µM
[26]
  GI50: 32.8 µM
  TGI: > 100 µM
[58]
  GI50: 2.21 µM
  TGI: 5.21 µM
[27]
  GI50: > 100 µM
  TGI: > 100 µM
[28]
  GI50: 33.1 µM
  TGI: > 100 µM
[29]
  GI50: 20.3 µM
  TGI: 48.6 µM
[30]
  GI50: 0.48 µM
  TGI: 3.71 µM
[31]
  GI50: 26.2 µM
  TGI: > 100 µM
[32]
  GI50: 15.8 µM
  TGI: 43.8 µM
[34]
  GI50: 16.2 µM
  TGI: > 100 µM
[35]
  GI50: 6.32 µM
  TGI: > 100 µM
[37]
  GI50: 6.04 µM
  TGI: > 100 µM
[38]
  GI50: 4.1 µM
  TGI: > 100 µM
[39]
  GI50: 3.88 µM
  TGI: > 100 µM
[40]
  GI50: 5.31 µM
  TGI: > 100 µM
[41]
  GI50: 5.47 µM
  TGI: > 100 µM
[42]
  GI50: 16.9 µM
  TGI: 43.7 µM
[43]
  GI50: 38.4 µM
  TGI: > 100 µM
[44]
  GI50: 2.27 µM
  TGI: 6.5 µM
[46]
  GI50: 11.8 µM
  TGI: 74.8 µM
[47]
  GI50: 7.68 µM
  TGI: > 100 µM
[48]
  GI50: 10.9 µM
  TGI: > 100 µM
[49]
  GI50: 45 µM
  TGI: > 100 µM
[50]
  GI50: 23.5 µM
  TGI: > 100 µM
[51]
  GI50: 2.22 µM
  TGI: 5.75 µM
[52]
  GI50: 3.04 µM
  TGI: 9.11 µM
[53]
  GI50: 6.27 µM
  TGI: 42.3 µM
[54]
  GI50: 27.5 µM
  TGI: > 100 µM
[55]
  GI50: 35.8 µM
  TGI: > 100 µM
[56]
  GI50: 6.02 µM
  TGI: 27.8 µM

Source: PubChem BioAssay (NCI)
